Measured values reported in patent US5444161A, “Substrates for β-galactosidase” (Microgenics Corporation, priority 1989, dated 1995).
≈ marks a conversion by molar mass, not a printed value.

What was measured:
[1] = Spontaneous hydrolysis rate of substrates (stability); assay type: physicochemical; settings: room temperature; normalized to 10 μg/ml starting concentration of substrate
Description: (§1) Table 1 gives the absorbance wavelength maximum (λmax) for the substrate and the reaction product, the molar extinction coefficient ε for the substrate and the reaction product, the solubility, and the spontaneous hydrolysis rate of the new substrates (stability). ONPG, the standard β-galactosidase substrate, is listed for comparision.
*Hydrolysis is measured at room temperature. Results are normalized to 10
μg/ml starting concentration of substrate.

Solubility of substrates = assay type: physicochemical
Description: as §1

[2] = Absorbance wavelength maximum and molar extinction coefficient of substrate and reaction product; assay type: physicochemical; settings: for Product λmax / Product ε: reaction product; for Product ε / Substrate ε: molar extinction coefficient
Description: as §1

β-galactosidase [3] = biological target: β-galactosidase (Escherichia coli, UniProt P00722); test: Kinetic properties of substrates with β-galactosidase; assay type: biochemical; settings: for Vm Ratio to ONPG: relative to ONPG; for Km: four or five substrate concentrations
Description: (§2) The ability of the subject compounds to act as substrates for β-galactosidase and ED28-digoxigenin+EA was measured and compared with the results obtained with ONPG. ED28-digoxigenin+EA are a β-galactosidase α fragment-digoxigenin conjugate and the α complementation acceptor, respectively. ED28-digoxigenin consists of β-galactosidase amino acids 1-46, with cysteines at positions 1 and 46, and digoxgenin conjugated to the cysteines. Assays involving ED and EA are described in greater detail in U.S. Pat. No. 4,708,929. E28-digoxigenin and EA are usually components of a CEDIA™ assay; however, in this set of experiments, antibodies are not present. Four or five substrate concentrations were used to obtain the results. The turnover figures are given for EA+ED28-digoxigenin, not β-galactosidase.

EA + ED28-digoxigenin = test: Kinetic properties of substrates with EA + ED28-digoxigenin; assay type: biochemical; settings: for Km / Vm Ratio to ONPG: no antibodies; for Km: four or five substrate concentrations; for Vm Ratio to ONPG / Turnover % ONPG: relative to ONPG
Description: as §2

β-galactosidase [4] = test: CEDIA digoxin assay with new substrates; assay type: biochemical; settings: relative to OCNPG, [Substrate]/Km 4.0x; for % Open: absence of antibody; for % Inhib: inhibitory antibody; for High calib % Mod / High calib % Net: saturating analyte
Description: (§3) β-galactosidase-analyte conjugates may be used in a variety of diagnostic assays. The subject compounds may be used in conjunction with these assays. Such assays may be used to determine the presence and/or concentration of various compounds, including specific proteins, carbohydrates, and polynucleotides. The assays may be heterogenous, including ELISA assays. In particular the subject compounds may be employed in CEDIA™ assays. CEDIA™ assays measure the amount of an analyte by means of the ability of the analyte to affect the observed enzyme activity when employing an anti-analyte antibody binding reaction to a β-galactosidase α complementing fragment conjugated to analyte or cross reactive compound. In the absence of free analyte, the observed β-galactosidase activity is lower. Thus in CEDIA™ assays β-galactosidase activity increases as the amount of analyte increases. CEDIA™ assays make use of the α complementation phenomenon between ED and EA as described in detail in U.S. Pat. No. 4,708,929.
(§4) The ability of the new substrates to function in CEDIA™ assays was tested. All values are relative to reaction rates using OCNPG (o-chloro-nitrophenyl-β-D-galactopyranoside). […] CEDIA™ assays for T3 (the thyroid hormone, triiodothyronine), digoxin, and folate were performed.
(§5) The terms in table 3 are defined as follows. [Substrate]/Km is the ratio of the concentation of substrate used in the assay to the Km of the enzyme for that substrate. The %open, %inhibition, %mod, and %net figures are all given relative to the results obtained with OCNPG.
(§6) %Open is the reaction rate in the absence of antibody. The figure given in table 3 is the reaction rate relative to the reaction rate obtained with OCNPG.
(§7) %Inhibition is defined as the difference between the reaction rate rate in the absence of antibody and the reaction rate in the presence of the inhibitory antibody found in the CEDIA™ assays, divided by the reaction rate in the absence of antibody. The figures given in table 3 are relative to the % inhibition figure obtained with OCNPG as substrate.
(§8) %Net is defined as the difference between the reaction rate of a CEDIA™ assay using the test substrate in the absence of analyte and presence of antibody and the same reaction in the presence of a saturating amount of analyte (i.e. maximum attainable reaction rate) and presence of antibody, divided by the difference between the reaction rate using OCNPG in the absence of analyte and presence of antibody, and the reaction rate with OCNPG using a saturating amount of analyte and presence of antibody.
(§9) %Mod is defined as the difference between the reaction rate of a CEDIA™ assay in the absence of analyte and presence of antibody and the same reaction in the presence of a saturating amount of analyte (i.e., maximum attainable reaction rate) and presence of antibody, divided by the same figure obtained for the reaction rate in the presence of a saturating amount analyte. The greater the %mod, the greater the range of analyte concentrations over which the assay will be effective. The figure given in Table 3 is the mod figure obtained for the new subtrate, divided by the %mod figure divided %mod figure obtained for OCNPG.

β-galactosidase [5] = test: CEDIA folate assay with new substrates; assay type: biochemical; settings: relative to OCNPG, [Substrate]/Km: DNPG 3.2x, m-CN-NPG 2.5x, NGPG 3.2x; for % Open: absence of antibody; for % Inhib: inhibitory antibody; for High calib % Mod / High calib % Net: saturating analyte
Description: as §3, §4, §5, §6, §7, §8, §9

β-galactosidase [6] = test: CEDIA T3 assay with new substrates; assay type: biochemical; settings: for % Open / % Inhib / High calib % Mod / High calib % Net: T3 assay, relative to OCNPG, [Substrate]/Km: DNPG 3.3x, m-CN-NPG 4.1x, NGPG 2.0x; for % Open: absence of antibody; for % Inhib: inhibitory antibody; for High calib % Mod / High calib % Net: saturating analyte
Description: as §3, §4, §5, §6, §7, §8, §9

β-galactosidase [7] = test: CEDIA assays (T3, digoxin and folate), overall; assay type: biochemical
Description: as §3, §4
The terms in table 3 are defined as follows. […]

Sequence of β-galactosidase (Escherichia coli, UniProt P00722) (P00722 2-1024): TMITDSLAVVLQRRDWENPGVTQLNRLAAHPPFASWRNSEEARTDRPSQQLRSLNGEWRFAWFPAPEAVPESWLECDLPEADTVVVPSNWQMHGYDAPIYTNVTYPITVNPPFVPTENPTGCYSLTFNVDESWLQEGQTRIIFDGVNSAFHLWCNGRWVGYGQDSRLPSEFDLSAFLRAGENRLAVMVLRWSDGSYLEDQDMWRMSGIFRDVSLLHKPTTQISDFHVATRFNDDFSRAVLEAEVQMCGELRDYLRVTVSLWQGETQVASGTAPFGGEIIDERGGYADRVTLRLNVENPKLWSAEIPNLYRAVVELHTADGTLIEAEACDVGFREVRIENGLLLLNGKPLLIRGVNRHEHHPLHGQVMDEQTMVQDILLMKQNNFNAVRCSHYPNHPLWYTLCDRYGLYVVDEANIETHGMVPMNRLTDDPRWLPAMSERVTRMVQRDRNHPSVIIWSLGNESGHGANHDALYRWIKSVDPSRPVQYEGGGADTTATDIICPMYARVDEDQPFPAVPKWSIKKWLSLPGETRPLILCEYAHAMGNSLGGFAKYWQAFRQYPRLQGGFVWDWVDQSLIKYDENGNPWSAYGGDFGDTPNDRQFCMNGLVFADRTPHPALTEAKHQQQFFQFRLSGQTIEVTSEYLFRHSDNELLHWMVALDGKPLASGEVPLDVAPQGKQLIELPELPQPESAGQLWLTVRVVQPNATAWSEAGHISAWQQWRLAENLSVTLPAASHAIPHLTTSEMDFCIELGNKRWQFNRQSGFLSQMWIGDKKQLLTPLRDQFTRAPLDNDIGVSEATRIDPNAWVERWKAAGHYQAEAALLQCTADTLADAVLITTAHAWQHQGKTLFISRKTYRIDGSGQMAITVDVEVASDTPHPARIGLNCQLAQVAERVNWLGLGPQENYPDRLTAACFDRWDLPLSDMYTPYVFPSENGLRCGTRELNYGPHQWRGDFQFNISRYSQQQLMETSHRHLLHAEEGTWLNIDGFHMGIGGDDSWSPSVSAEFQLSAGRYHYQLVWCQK

Compound | Hydrolysis [1] | Solubility (Solubility of substrates) | Product λmax [2] | Product ε [2] | Substrate λmax [2] | Substrate ε [2] | Vm Ratio to ONPG (β-galactosidase [3]) | Km (EA + ED28-digoxigenin) | Vm Ratio to ONPG (EA + ED28-digoxigenin) | Turnover % ONPG (EA + ED28-digoxigenin) | % Open (β-galactosidase [4]) | % Inhib (β-galactosidase [4]) | High calib % Mod (β-galactosidase [4]) | High calib % Net (β-galactosidase [4]) | % Open (β-galactosidase [5]) | % Inhib (β-galactosidase [5]) | High calib % Mod (β-galactosidase [5]) | High calib % Net (β-galactosidase [5]) | % Open (β-galactosidase [6]) | % Inhib (β-galactosidase [6]) | further results
O=[N+]([O-])c1ccc(O[C@@H]2O[C@H](CO)[C@H](O)[C@H](O)[C@H]2O)cc1[N+](=O)[O-] [3,4 DNPG, 3,4-Dinitrophenyl-β-D-galactopyranoside] | 6 mA/Day | 3000 µg/mL (≈ 8.66 mM) | 400 nm | 12400 OD/M | 280 nm | 6000 OD/M | 3.5 | 0.19 mg/mL | 2.8 | 70% | 92% | 74% | 85% | 72% | 72% | 77% | 76% | 58% | 73% | 93% | High calib % Mod (β-galactosidase [6]): 88%; High calib % Net (β-galactosidase [6]): 71%
COc1cc([N+](=O)[O-])ccc1O[C@@H]1O[C@H](CO)[C@H](O)[C@H](O)[C@H]1O [NGPG, o-Methoxy-p-nitrophenyl-β-D-galactopyranoside] | 1 mA/Day | 1000 µg/mL (≈ 3.02 mM) | 430 nm | 17600 OD/M | 298 nm | 7400 OD/M | 3.7 | 0.28 mg/mL | 3.6 | 56% | 81% | 98% | 85% | 72% | 85% | 104% | 102% | 84% | 41% | 87% | affinity compared with ONPG (in words) (β-galactosidase [3]): somewhat lower affinity than ONPG; affinity compared with ONPG (in words) (EA + ED28-digoxigenin): somewhat lower affinity than ONPG; High calib % Mod (β-galactosidase [6]): 82%; High calib % Net (β-galactosidase [6]): 37%
O=Cc1cc([N+](=O)[O-])ccc1O[C@@H]1O[C@H](CO)[C@H](O)[C@H](O)[C@H]1O [NSPG] | 19 mA/Day | < 40000 µg/mL | 382 nm | 16500 OD/M | 298 nm | 14900 OD/M | 3.2 | 0.14 mg/mL | 3.0 | 54% |  |  |  |  |  |  |  |  |  |  | solubility (in words) (Solubility of substrates): high aqueous solubility; Km (β-galactosidase [3]): 334 µM
O=[N+]([O-])c1ccccc1O[C@@H]1O[C@H](CO)[C@H](O)[C@H](O)[C@H]1O [ONPG, o-nitrophenyl-β-D-galactopyranoside, reference compound] | 0.4 mA/Day | 10000 µg/mL (≈ 33.2 mM) | 414 nm | 3000 OD/M | 315 nm | 2000 OD/M | 1.0 | 0.15 mg/mL | 1.0 | 100% |  |  |  |  |  |  |  |  |  |  | Km (β-galactosidase [3]): 266 µM; signal in CEDIA assays (in words) (β-galactosidase [7]): exceptionally weak signal
N#Cc1cc(O[C@@H]2O[C@H](CO)[C@H](O)[C@H](O)[C@H]2O)ccc1[N+](=O)[O-] [m-CN-NPG, m-Cyano-p-nitrophenyl-β-D-galactopyranoside] | 5 mA/Day | < 8000 µg/mL | 405 nm | 17000 OD/M | 308 nm | 9200 OD/M | 3.0 | 0.14 mg/mL | 2.4 | 44% | 82% | 91% | 85% | 71% | 62% | 93% | 103% | 72% | 71% | 100% | High calib % Mod (β-galactosidase [6]): 100%; High calib % Net (β-galactosidase [6]): 63%; T3 assay results on increasing substrate concentration (in words) (β-galactosidase [6]; substrate increased from 2.7×Km to 4.1×Km): improved
